The nature of test [1]: Inhibition of Vibrio cholerae carbonic anhydrase beta preincubated for 15 mins by stopped-flow CO2 hydrase assay.
Test [2] is described as follows: Inhibition of Helicobacter pylori alpha carbonic anhydrase preincubated for 15 mins by stopped-flow CO2 hydrase assay.
A short description of test [3]: Inhibition of Vibrio cholerae alpha carbonic anhydrase preincubated for 15 mins by stopped-flow CO2 hydrase assay.
For another test, the target named is Carbonic anhydrase 1 (Homo sapiens, UniProt P00915). As to the kind of experiment: Inhibition of human carbonic anhydrase 1 preincubated for 15 mins by stopped-flow CO2 hydrase assay.
Sequence of Carbonic anhydrase 1 (P00915 whole entry): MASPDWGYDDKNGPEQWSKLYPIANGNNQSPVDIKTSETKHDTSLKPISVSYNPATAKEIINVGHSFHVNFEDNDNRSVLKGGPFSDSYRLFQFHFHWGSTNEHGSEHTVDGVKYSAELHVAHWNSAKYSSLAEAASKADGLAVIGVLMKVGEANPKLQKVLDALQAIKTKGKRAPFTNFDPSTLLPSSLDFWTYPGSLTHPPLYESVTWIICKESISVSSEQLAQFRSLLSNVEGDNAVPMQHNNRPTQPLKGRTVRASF

Several values for one entry are separate records, joined by “and”; a condition that tells them apart may be missing. Equal entries are not always repeated.

The Ki is the equilibrium dissociation constant of an inhibitor or competing ligand from its target. Lower therefore signals higher affinity. In turn, `O=S(=O)(O)F` registered a Ki in test [1] of 8900 µM.
For `O=S(=O)(O)NS(=O)(=O)O`, the Ki in test [2] is 540 µM; in test [3] it was 88200 µM; in test [1] it was over 200000 µM.
On to `O=S(=O)(O)OOS(=O)(=O)O`, for which the Ki in test [2] amounted to 920 µM; in test [3], 84100 µM; in test [1] it was 3400 µM.
The matching figures for `F[B-](F)(F)F`: over 200000 µM, over 200000 µM and over 200000 µM.
The matching figures for `O=[N+]([O-])O`: 810 µM, 670 µM and 8400 µM.
The matching figures for `O=[Te](=O)(O)O`: 340 µM, 14500 µM and 2300 µM.
As to `N#C[SeH]`, the Ki is 730 µM in test [2], 760 µM in test [3], 5300 µM in test [1] and 8.5 µM on Carbonic anhydrase 1.
For the compound `[N-]=[N+]=[N-]`, the Ki in test [2] is 830 µM; in test [3], 760 µM; in test [1], 20500 µM.
Consider `O=C(O)O` [BICARBONATE], for which the Ki was 4640 µM and 5130 µM in test [3]; 5900 µM and 6700 µM in test [1].
For `Br` [BROMIDE], the Ki in test [2] was 2410 µM; in test [3], 28000 µM; in test [1], 7400 µM.
The matching figures for `S=C(S)S` [CARBONOTRITHIOIC ACID]: 380 µM, 88 µM and 7000 µM.
The matching figures for `N#CO` [CYANATE]: 600 µM, 75 µM and 7100 µM.
On to `CCN(CC)C(=S)S` [DITIOCARB], for which the Ki was determined as 5 µM in test [2], 43 µM in test [3] and 730 µM in test [1].
The matching figures for `F` [FLUORIDE ION]: 4080 µM, 800 µM and 8700 µM.
The matching figures for `Cl` [HYDROCHLORIC ACID]: 2700 µM, 930 µM and 8100 µM.
On to `S` [HYDROGEN SULFIDE], for which the Ki in test [3] turned out to be 74 µM; in test [1] it was 21300 µM.
Consider `I` [IODIDE], for which the figures for the inhibition constant (Ki) in test [2], in test [3] and in test [1] were 6050 µM, 9730 µM and 9000 µM, respectively.
The matching figures for `O=NO` [NITROUS ACID]: 930 µM, 34100 µM and 9100 µM.
In the case of `[O-][Cl+3]([O-])([O-])O` [PERCHLORATE], the Ki in test [2] was 10100 µM; in test [3], over 200000 µM; in test [1], over 200000 µM.
As to `O=[As](O)(O)c1ccccc1` [PHENYLARSONIC ACID], the Ki worked out at 440 µM in test [2], 23 µM in test [3] and 79 µM in test [1].
Turning to `OB(O)c1ccccc1` [PHENYLBORONIC ACID], the Ki in test [2] came to 97 µM; in test [3], 7 µM; in test [1], 85 µM.
As to `O=P(O)(O)OP(=O)(O)O` [PYROPHOSPHORIC ACID], the Ki is 660 µM in test [2] and 2960 µM in test [3].
For the compound `O=[Se](=O)(O)O` [SELENIC ACID], the inhibition constant Ki in test [2] is 720 µM; in test [3], 60800 µM; in test [1], 3400 µM.
The matching figures for `NS(=O)(=O)O` [SULFAMATE]: 80 µM, 31 µM and 86 µM.
In the case of `NS(N)(=O)=O` [SULFAMIDE], the Ki in test [2] was 73 µM; in test [3] it was 8 µM; in test [1] it was 54 µM.
Turning to `O=S(=O)(O)O` [SULFURIC ACID], the Ki in test [2] was found to be 820 µM; in test [3] it was 850 µM.
`O=S(O)O` [SULFUROUS ACID]: the Ki in test [2] is 990 µM; in test [3] it was 68 µM; in test [1], over 200000 µM.
The matching figures for `N#CS` [THIOCYANIC ACID]: 4100 µM, 820 µM and 9500 µM.
